From PubChem BioAssay (NCI) come the findings set out here.

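Values below derive from 48-hour exposures of cells grown in 96-well plates, with endpoints linearly interpolated between the two concentrations bracketing the appropriate inhibition level. TGI is the concentration that stops growth completely.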

Holding throughout (test): DTP human tumour cell line panel, 48 h
Test [1] concerns SF-295 CNS.
The test system of test [2] is CCRF-CEM leukemia.
In test [3] the test system is HCC-2998 colon.
The test system of test [4] is RXF 393 renal.
The subject of test [5] is NCI-H23 lung.
The subject of test [6] is UO-31 renal.
The test system of test [7] is MDA-N.
Test [8] has as its system K-562 leukemia.
Test [9] concerns SNB-75 CNS.
Test [10] concerns SK-OV-3 ovarian.
Test [11] has as its system SK-MEL-28 melanoma.
Test [12] has as its system HOP-92 NSCLC.
For test [13], the system named is SNB-19 CNS.
In test [14] the test system is RPMI-8226 leukemia.

With `CC1C2(C)OC(=N)C(C#N)(C(c3ccco3)O2)C1(C#N)C#N` (stereo not given), the TGI in test [1] is greater than 100 µM; in test [2], 84.4 µM; in [3], 55.5 µM; in test [4], 51.4 µM; in test [5], 93.6 µM; in test [6] it was greater than 100 µM. The TGI in test [7] was 43 µM; in test [8], greater than 100 µM; in test [9], greater than 100 µM; in test [10], greater than 100 µM; in test [11], 46.2 µM; in [12], 47.3 µM. Also, the concentration for total growth inhibition (TGI) in test [13] was greater than 100 µM.

Regarding `CC(=O)O[C@H]1[C@@H](OC2CCCC2(c2ccccc2)c2ccccc2)O[N+]([O-])=C[C@@]12COCc1cc3c(cc12)OCO3` (stereo not given in full), the TGI was greater than 25.9 µM in [1]; greater than 24.5 µM in [2]; 11.9 µM in [3]; 17.5 µM in test [4]; 52.1 µM in [5]; 14.1 µM in test [6]. The concentration for total growth inhibition (TGI) in [7] is greater than 100 µM; in test [8], greater than 23.7 µM; in test [9], 34.6 µM; in test [10], greater than 91.6 µM; in test [11], greater than 28.4 µM; in test [12], 30.7 µM. Further, in test [13], the TGI was found to be 49 µM.

On to `CC(=O)O[C@H]1CC[C@H]2[C@@H]3CCC4=C(C(=O)C=CC4(C)OC(C)=O)[C@H]3CC[C@]12C` (stereo not given in full), for which the TGI in test [1] is greater than 100 µM; in test [2] it was greater than 100 µM; in test [3], greater than 100 µM; in test [4] it was 92.1 µM; in [14] it was greater than 100 µM; in [5], greater than 100 µM. The total growth inhibition concentration (TGI) in test [6], in test [7], in test [8], in test [9], in test [11] and in [12] was greater than 100 µM each time. In test [13], this compound displayed a concentration for total growth inhibition (TGI) greater than 100 µM.

Turning to `CC(=O)O[C@H]1[C@H](OC(C)=O)[C@@H](CN=[N+]=[N-])OCO[C@@H]1CN=[N+]=[N-]`, the TGI in [1], in test [2], in [3], in test [4], in test [14] and in [5] was greater than 100 µM each time. For the same compound, the TGI in [7], in test [8], in [9], in [10], in [11] and in [12] was greater than 100 µM throughout. This compound also showed a TGI in [13] greater than 100 µM.

Consider `O=C(Nc1nncs1)NS(=O)(=O)n1cnc2ccccc21`, for which the TGI in [1], in test [2], in test [3], in test [4], in test [14] and in test [5] was greater than 100 µM throughout. Further, the TGI in test [7], in test [9], in [10], in test [11], in [12] and in test [13] was greater than 100 µM each time.

Consider `O=C1C=CC[C@H](/C=C/C[C@@H](O)C[C@H](O)/C=C/c2ccccc2)O1`, for which the concentration for total growth inhibition (TGI) was determined as 29.8 µM in test [1]; 19.1 µM in [2]; 18.6 µM in test [3]; 22.1 µM in [4]; 23.5 µM in test [5]; 25.9 µM in [6]. For the same compound, the concentration for total growth inhibition (TGI) in [7] stood at 24.9 µM; in test [8] it was 42.3 µM; in test [9], 26.4 µM; in test [10], 28.3 µM; in test [11], 30.8 µM; in test [12] it was 13.7 µM. The TGI in [13] came to 34.1 µM.

For `CCN(CC)CCNc1ccc2ncn3c4c(OC)cccc4c(=O)c1c23`, the TGI in test [1] stood at 25.1 µM; in [2], 17.3 µM; in [3], 18.6 µM; in [4], 11.6 µM; in test [5], 24.5 µM; in test [6] it was 17.5 µM. The total growth inhibition concentration (TGI) amounted to 17.1 µM in [7]; 23.3 µM in [8]; 24.5 µM in [9]; 24 µM in test [10]; 21.7 µM in test [11]; 18.4 µM in test [12]. Besides, in [13], the TGI was determined as 46.3 µM.

On to `C[N+](C)(C)C1(C(=O)[O-])CC1`, for which the TGI in test [1], in [2], in test [3], in [4], in test [14] and in test [5] was greater than 100 µM each time. Besides, the TGI in test [7], in test [8], in test [9], in test [11], in test [12] and in [13] was greater than 100 µM each time.

As for `COc1ccc(C(=O)/C=C/c2ccc(OCC(=O)O)cc2)cc1`, the TGI in test [1], in test [2], in test [3], in [4], in [14] and in test [5] was greater than 100 µM each time. The total growth inhibition concentration (TGI) in test [6], in test [7], in test [8], in [9], in test [11] and in [12] was greater than 100 µM each time. The total growth inhibition concentration (TGI) in test [13] is greater than 100 µM.

Turning to `COc1ccc(/C=C(\C(=O)OCC(C)C)c2ccc(OC)c(OC)c2)cc1OC`, the concentration for total growth inhibition (TGI) in test [1], in test [2], in [3], in test [4], in test [14] and in test [5] was greater than 100 µM each time. For the same compound, the TGI in [6], in test [7], in test [8], in test [9], in [11] and in [12] was greater than 100 µM each time. The same compound returned a concentration for total growth inhibition (TGI) in [13] greater than 100 µM.

On to `CCN(CC)c1nc(N(C)C)c2ccc(OC)cc2n1`, for which the concentration for total growth inhibition (TGI) was greater than 100 µM in [1]; 26.9 µM in test [3]; 34.7 µM in [4]; 31 µM in [14]; greater than 100 µM in test [5]; 22 µM in [7]. The concentration for total growth inhibition (TGI) in [8] was 66.6 µM; in [9], 66.6 µM; in test [10] it was 52.5 µM; in test [11], 32.4 µM; in test [12], greater than 100 µM; in test [13], 70 µM.
